Assay results: PubChem BioAssay AID1963978 (Molecular Pharmacology Branch, DTP, NCI, 2024)
Several values for one entry are separate records, joined by “and”; a condition that tells them apart may be missing. Equal entries are not always repeated.

Test system: 616215-338-R-J1-PDC spheroids with HUVEC/MSC, viability
Assay: Anticancer human tumor 616215-338-R-J1-PDC patient-derived colon adenocarcinoma cell line growth inhibition [PI3K]
Details: for viability, T/C: stronger effect = lower value; active = viability on the fitted dose curve at most 10% of control; inactive = the rest
Source text: Combinatorial screen of targeted agents with the PI3K inhibitors inavolisib, alpelisib, duvelisib, and copanlisib in multi-cell type tumor spheroids
A high-throughput screen of multi-cell type tumor spheroids was designed to identify active combinations of targeted small molecules and PI3K pathway inhibitors. Complex spheroids include a stromal component modeled by human endothelial cells (HUVEC) and fibroblasts modeled by human mesenchymal stem cells (MSCs). The concentration ranges selected for each drug and investigational agent were based upon clinically achievable concentrations if the clinical Cmax of the agent was known.
Compounds. The drugs and investigational agents: inavolisib (NSC800729), alpelisib (NSC765974), duvelisib (NSC772469), copanlisib (NSC816437), ipatasertib (NSC767898), afuresertib (NSC778305), talazoparib (NSC767125), sapanisertib (NSC764658), selumetinib (NSC741078), tovorafenib (DAY101, NSC766906), vemurafenib (NSC761431), ravoxertinib (NSC781343), sotorasib (NSC818433), MRTX1133 (NSC 836407), abemaciclib (NSC 768073), palbociclib (NSC758247), venetoclax (NSC 766270), SY5609 (NSC837396), enzalutamide (NSC755605), and darolutamide (NSC825331), were obtained from the National Cancer Institute (NCI) Developmental Therapeutics Program Chemical Repository. The FDA-approved anticancer drug set is available from the NCI Developmental Therapeutics Program. […] The stock solutions were prepared in dimethyl sulfoxide (DMSO, Sigma-Aldrich, St. Louis, MO, cat. D2650) at 800-fold the tested concentration and stored at -70 degrees C prior to their use. All drugs and investigational agents were tested over a range starting from a high concentration at or near the clinical Cmax and decreasing in half-log increments. If the clinical Cmax for an agent had not been determined, the highest concentration tested was 10 microM.
Cell Culture. All cells were maintained in an incubator at 37 degrees C and 5% CO2 with 95% humidity. The PDC lines were cultured according to standard operating procedures established by the NCI PDMR (https://pdmr.cancer.gov/sops/default.htm). All PDCs were thawed and cultured in Matrigel-coated flasks prepared with a working solution of 1X Ham's F-12 nutrient mix, without supplementation (Invitrogen, Waltham, MA, cat. 11765054), 100 U/mL penicillin-streptomycin (Invitrogen, cat. 15140122), and 2.5% Matrigel (Corning Inc., Corning, NY, cat. 354248) for the first three passages. The 354836-022-R-J1-PDC, 475296-252-R-J1-PDC, and 997726-040-R-J2-PDC lines were cultured in 6A media, which includes advanced DMEM/F-12 (Thermo Fisher Scientific, cat. 12634028), 10 mM HEPES (Thermo Fisher Scientific, cat. 15630080), 1X GlutaMAX supplement (Thermo Fisher Scientific, cat. 35050061), 0.1 mg/mL primocin (InvivoGen, San Diego, CA, cat. ant-pm-2), 10% defined fetal bovine serum, heat inactivated (HyClone Laboratories Inc., Logan, UT, cat. SH30070.03HI), 50% L-WRN conditioned media (ATCC, cat. CRL-3276), 1.25 mM N-Acetyl-L-cysteine (Sigma-Aldrich, cat. A9165), 10 mM nicotinamide (Sigma-Aldrich, cat. N0636), 1X B-27 supplement (Thermo Fisher Scientific, cat. 17504044), 1X N-2 supplement (Thermo Fisher Scientific, cat. 17502048), and 10 microM Y-27632 dihydrochloride (Tocris Bioscience, Bristol, United Kingdom, cat. 1254). The 624824-186-R-J2-PDC line was cultured in 6C/Colon 1B media, which includes all 6A media components plus 50 ng/mL human EGF recombinant protein (Thermo Fisher Scientific, cat. PHG0311). […]

[1] = curve of first compound, second compound 0.00316 µM
[2] = curve of first compound, second compound 0.01 µM
[3] = curve of first compound, second compound 0.0316 µM
[4] = curve of first compound, second compound 0.1 µM
[5] = curve of first compound, second compound 0.316 µM
[6] = curve of first compound, second compound 1 µM
[7] = second compound 0.00316 µM, first compound 0.0316 µM
[8] = second compound 0.00316 µM, first compound 0.1 µM
[9] = second compound 0.00316 µM, first compound 0.316 µM
[10] = second compound 0.00316 µM, first compound 1 µM
[11] = second compound 0.00316 µM, first compound 3.16 µM
[12] = second compound 0.00316 µM, first compound 10 µM
[13] = second compound 0.01 µM, first compound 0.0316 µM
[14] = second compound 0.01 µM, first compound 0.1 µM
[15] = second compound 0.01 µM, first compound 0.316 µM
[16] = second compound 0.01 µM, first compound 1 µM
[17] = second compound 0.01 µM, first compound 3.16 µM
[18] = second compound 0.01 µM, first compound 10 µM
[19] = second compound 0.0316 µM, first compound 0.0316 µM
[20] = second compound 0.0316 µM, first compound 0.1 µM
[21] = second compound 0.0316 µM, first compound 0.316 µM
[22] = second compound 0.0316 µM, first compound 1 µM
[23] = second compound 0.0316 µM, first compound 3.16 µM
[24] = second compound 0.0316 µM, first compound 10 µM
[25] = second compound 0.1 µM, first compound 0.0316 µM
[26] = second compound 0.1 µM, first compound 0.1 µM
[27] = second compound 0.1 µM, first compound 0.316 µM
[28] = second compound 0.1 µM, first compound 1 µM
[29] = second compound 0.1 µM, first compound 3.16 µM
[30] = second compound 0.1 µM, first compound 10 µM
[31] = second compound 0.316 µM, first compound 0.0316 µM
[32] = second compound 0.316 µM, first compound 0.1 µM
[33] = second compound 0.316 µM, first compound 0.316 µM
[34] = second compound 0.316 µM, first compound 1 µM
[35] = second compound 0.316 µM, first compound 3.16 µM
[36] = second compound 0.316 µM, first compound 10 µM
[37] = second compound 1 µM, first compound 0.0316 µM
[38] = second compound 1 µM, first compound 0.1 µM
[39] = second compound 1 µM, first compound 0.316 µM
[40] = second compound 1 µM, first compound 1 µM
[41] = second compound 1 µM, first compound 3.16 µM
[42] = second compound 1 µM, first compound 10 µM
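Note: spheroids exposed to agents for seven days before the viability read.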

C[C@@H](NC(=O)c1ncnc(N)c1Cl)c1ncc(C(=O)Nc2cc(C(F)(F)F)c(Cl)cn2)s1 + COc1c(OCCCN2CCOCC2)ccc2c3n(c(=NC(=O)c4cnc(N)nc4)nc12)CCN3
< 0.0316 µM: IC50 [6]
active: viability, T/C [41] 6.09% | viability, T/C [42] 1.64%
> 10 µM: IC50 [1] | IC50 [2] | IC50 [3]
0.072 µM: IC50 [5]
inactive: viability, T/C [7] 94.6% | viability, T/C [8] 117% | viability, T/C [9] 117% | viability, T/C [10] 109% | viability, T/C [11] 104% | viability, T/C [12] 80.2% | viability, T/C [13] 96.3% | viability, T/C [14] 102% | viability, T/C [15] 116% | viability, T/C [16] 115% | viability, T/C [17] 112% | viability, T/C [18] 89.3% | viability, T/C [19] 97.9% | viability, T/C [20] 106% | viability, T/C [21] 106% | viability, T/C [22] 113% | viability, T/C [23] 91.2% | viability, T/C [24] 53.3% | viability, T/C [25] 114% | viability, T/C [26] 103% | viability, T/C [27] 97.6% | viability, T/C [28] 97.2% | viability, T/C [29] 74.7% | viability, T/C [30] 37.7% | viability, T/C [31] 54% | viability, T/C [32] 48.4% | viability, T/C [33] 40.2% | viability, T/C [34] 32.2% | viability, T/C [35] 28.4% | viability, T/C [36] 8.73% | viability, T/C [37] 24.4% | viability, T/C [38] 19.7% | viability, T/C [39] 16.2% | viability, T/C [40] 11.3%
6.86 µM: IC50 [4]

Cn1nccc1Nc1nccc(-c2ccn(C(CO)c3ccc(Cl)c(F)c3)c(=O)c2)n1 (stereo not given) + CC(Nc1ccc2c(c1)OCCn1cc(N3C(=O)OCC3C(F)F)nc1-2)C(N)=O
0.986 µM: IC50 [5]
active: viability, T/C [42] 6.88%
4.61 µM: IC50 [1]
1.24 µM: IC50 [6]
1.15 µM: IC50 [4]
2.32 µM: IC50 [3]
inactive: viability, T/C [7] 94.1% | viability, T/C [8] 87% | viability, T/C [9] 74.5% | viability, T/C [10] 71.3% | viability, T/C [11] 53.8% | viability, T/C [12] 40.1% | viability, T/C [13] 100% | viability, T/C [14] 97.6% | viability, T/C [15] 81.8% | viability, T/C [16] 71.1% | viability, T/C [17] 50.7% | viability, T/C [18] 41% | viability, T/C [19] 86.8% | viability, T/C [20] 103% | viability, T/C [21] 87.7% | viability, T/C [22] 58.3% | viability, T/C [23] 54.2% | viability, T/C [24] 38.4% | viability, T/C [25] 96.8% | viability, T/C [26] 91.6% | viability, T/C [27] 78.1% | viability, T/C [28] 50.8% | viability, T/C [29] 38.8% | viability, T/C [30] 33% | viability, T/C [31] 92.5% | viability, T/C [32] 100% | viability, T/C [33] 66.8% | viability, T/C [34] 52.6% | viability, T/C [35] 37.4% | viability, T/C [36] 29.1% | viability, T/C [37] 96.8% | viability, T/C [38] 93.7% | viability, T/C [39] 72.5% | viability, T/C [40] 44.9% | viability, T/C [41] 40.5%
3.92 µM: IC50 [2]

CCCS(=O)(=O)Nc1ccc(F)c(C(=O)c2c[nH]c3ncc(-c4ccc(Cl)cc4)cc23)c1F
4.34 µM and 3.87 µM and 5.17 µM: IC50 (curve of compound)
active: viability, T/C (compound 10 µM) 2.66% [middle of 4 runs]
inactive: viability, T/C (compound 0.0316 µM) 95.5% [middle of 4 runs] | viability, T/C (compound 0.1 µM) 93.5% [middle of 4 runs] | viability, T/C (compound 0.316 µM) 97.2% [middle of 4 runs] | viability, T/C (compound 1 µM) 92.5% [middle of 4 runs]
